Reference: ChEMBL document CHEMBL2346657, “Synthesis of novel 2-amino-4-(5'-substituted 2'-phenyl-1H-indol-3'-yl)-6-aryl-4H-pyran-3-carbonitrile derivatives as antimicrobial and antioxidant agents” (2013)
Active and inactive are the calls of the source. How the calls were made is not given here.

What was measured:
Type in all cases: functional
[1] = Antioxidant activity assessed as metal chelating activity by measuring inhibition of ferrozine-Fe2+ complex formation at 25 to 100 ug/ml
[2] = tested on: Aspergillus flavus; test: Antimicrobial activity against Aspergillus flavus MTCC 1973 at 500 ug/ml after 72 hrs by cup plate method; details: MTCC 1973, 72 h, read-out: IZ
[3] = tested on: Aspergillus flavus; test: Antimicrobial activity against Aspergillus flavus MTCC 1973 at 750 ug/ml after 72 hrs by cup plate method; details: MTCC 1973, 72 h, read-out: IZ
[4] = tested on: Aspergillus flavus; test: Antimicrobial activity against Aspergillus flavus MTCC 1973 at 1000 ug/ml after 72 hrs by cup plate method; details: MTCC 1973, 72 h, read-out: IZ
[5] = tested on: Aspergillus terreus; test: Antimicrobial activity against Aspergillus terreus MTCC 1782 at 500 ug/ml after 72 hrs by cup plate method; details: MTCC 1782, 72 h, read-out: IZ
[6] = tested on: Aspergillus terreus; test: Antimicrobial activity against Aspergillus terreus MTCC 1782 at 750 ug/ml after 72 hrs by cup plate method; details: MTCC 1782, 72 h, read-out: IZ
[7] = tested on: Aspergillus terreus; test: Antimicrobial activity against Aspergillus terreus MTCC 1782 at 1000 ug/ml after 72 hrs by cup plate method; details: MTCC 1782, 72 h, read-out: IZ
[8] = tested on: Aspergillus oryzae; test: Antimicrobial activity against Aspergillus oryzae MTCC 3567 at 500 ug/ml after 72 hrs by cup plate method; details: MTCC 3567, 72 h, read-out: IZ
[9] = tested on: Aspergillus oryzae; test: Antimicrobial activity against Aspergillus oryzae MTCC 3567 at 750 ug/ml after 72 hrs by cup plate method; details: MTCC 3567, 72 h, read-out: IZ
[10] = tested on: Aspergillus oryzae; test: Antimicrobial activity against Aspergillus oryzae MTCC 3567 at 1000 ug/ml after 72 hrs by cup plate method; details: MTCC 3567, 72 h, read-out: IZ
[11] = tested on: Aspergillus niger; test: Antimicrobial activity against Aspergillus niger MTCC 281 at 500 ug/ml after 72 hrs by cup plate method; details: MTCC 281, 72 h, read-out: IZ
[12] = tested on: Aspergillus niger; test: Antimicrobial activity against Aspergillus niger MTCC 281 at 750 ug/ml after 72 hrs by cup plate method; details: MTCC 281, 72 h, read-out: IZ
[13] = tested on: Aspergillus niger; test: Antimicrobial activity against Aspergillus niger MTCC 281 at 1000 ug/ml after 72 hrs by cup plate method; details: MTCC 281, 72 h, read-out: IZ
[14] = tested on: Pseudomonas aeruginosa; test: Antimicrobial activity against Pseudomonas aeruginosa MTCC 1688 at 500 ug/ml after 24 hrs by cup plate method; details: MTCC 1688, 24 h, read-out: IZ
[15] = tested on: Pseudomonas aeruginosa; test: Antimicrobial activity against Pseudomonas aeruginosa MTCC 1688 at 750 ug/ml after 24 hrs by cup plate method; details: MTCC 1688, 24 h, read-out: IZ
[16] = tested on: Pseudomonas aeruginosa; test: Antimicrobial activity against Pseudomonas aeruginosa MTCC 1688 at 1000 ug/ml after 24 hrs by cup plate method; details: MTCC 1688, 24 h, read-out: IZ
[17] = tested on: Klebsiella pneumoniae; test: Antimicrobial activity against Klebsiella pneumoniae NCTC 13368 at 500 ug/ml after 24 hrs by cup plate method; details: NCTC 13368, 24 h, read-out: IZ
[18] = tested on: Klebsiella pneumoniae; test: Antimicrobial activity against Klebsiella pneumoniae NCTC 13368 at 750 ug/ml after 24 hrs by cup plate method; details: NCTC 13368, 24 h, read-out: IZ
[19] = tested on: Klebsiella pneumoniae; test: Antimicrobial activity against Klebsiella pneumoniae NCTC 13368 at 1000 ug/ml after 24 hrs by cup plate method; details: NCTC 13368, 24 h, read-out: IZ
[20] = tested on: Staphylococcus aureus; test: Antimicrobial activity against Staphylococcus aureus ATCC 29513 at 500 ug/ml after 24 hrs by cup plate method; details: ATCC 29513, 24 h, read-out: IZ
[21] = tested on: Staphylococcus aureus; test: Antimicrobial activity against Staphylococcus aureus ATCC 29513 at 750 ug/ml after 24 hrs by cup plate method; details: ATCC 29513, 24 h, read-out: IZ
[22] = tested on: Staphylococcus aureus; test: Antimicrobial activity against Staphylococcus aureus ATCC 29513 at 1000 ug/ml after 24 hrs by cup plate method; details: ATCC 29513, 24 h, read-out: IZ
[23] = tested on: Escherichia coli; test: Antimicrobial activity against Escherichia coli MTCC 723 at 500 ug/ml after 24 hrs by cup plate method; details: MTCC 723, 24 h, read-out: IZ
[24] = tested on: Escherichia coli; test: Antimicrobial activity against Escherichia coli MTCC 723 at 750 ug/ml after 24 hrs by cup plate method; details: MTCC 723, 24 h, read-out: IZ
[25] = tested on: Escherichia coli; test: Antimicrobial activity against Escherichia coli MTCC 723 at 1000 ug/ml after 24 hrs by cup plate method; details: MTCC 723, 24 h, read-out: IZ

Structure (SMILES) | Activity [1] | zone of inhibition at 500 µg/mL [2] [mm] | zone of inhibition at 750 µg/mL [3] [mm] | zone of inhibition at 1000 µg/mL [4] [mm] | zone of inhibition at 500 µg/mL [5] [mm] | zone of inhibition at 750 µg/mL [6] [mm] | zone of inhibition at 1000 µg/mL [7] [mm] | zone of inhibition at 500 µg/mL [8] [mm] | zone of inhibition at 750 µg/mL [9] [mm] | zone of inhibition at 1000 µg/mL [10] [mm] | zone of inhibition at 500 µg/mL [11] [mm] | zone of inhibition at 750 µg/mL [12] [mm] | zone of inhibition at 1000 µg/mL [13] [mm] | zone of inhibition at 500 µg/mL [14] [mm] | zone of inhibition at 750 µg/mL [15] [mm] | zone of inhibition at 1000 µg/mL [16] [mm] | zone of inhibition at 500 µg/mL [17] [mm] | zone of inhibition at 750 µg/mL [18] [mm] | zone of inhibition at 1000 µg/mL [19] [mm] | zone of inhibition at 500 µg/mL [20] [mm] | other results
Cc1ccc(C2=CC(c3c(-c4ccccc4)[nH]c4ccccc34)c3c(N)nc(=S)[nH]c3O2)cc1 (stereo not given) | Active | 3 | 3 | 3 | 6 | 4 | 4 | 10 | 9 | 9 | 6 | 5 | 2 | 5 | 5 | 3 | 9 | 9 | 3 | 6 | zone of inhibition at 750 µg/mL [21]: 4 mm; zone of inhibition at 1000 µg/mL [22]: 4 mm; zone of inhibition at 500 µg/mL [23]: 9 mm; zone of inhibition at 750 µg/mL [24]: 8 mm; zone of inhibition at 1000 µg/mL [25]: 3 mm
O=c1[nH]cnc2c1C(c1c(-c3ccccc3)[nH]c3ccccc13)C=C(c1ccccc1)O2 (stereo not given) | Active | 9 | 9 | 9 | 9 | 8 | 8 | 5 | 5 | 5 | 6 | 6 | 5 | 5 | 4 | 4 | 11 | 10 | 10 | 10 | zone of inhibition at 750 µg/mL [21]: 10 mm; zone of inhibition at 1000 µg/mL [22]: 10 mm; zone of inhibition at 500 µg/mL [23]: 8 mm; zone of inhibition at 750 µg/mL [24]: 6 mm; zone of inhibition at 1000 µg/mL [25]: 6 mm
Nc1nc(=S)[nH]c2c1C(c1c(-c3ccccc3)[nH]c3ccc(Cl)cc13)C=C(c1ccccc1)O2 (stereo not given) | Active | 8 | 8 | 8 | 9 | 8 | 8 | 10 | 10 | 0 | 5 | 5 | 10 | 6 | 5 | 5 | 10 | 10 | 10 | 9 | zone of inhibition at 750 µg/mL [21]: 9 mm; zone of inhibition at 1000 µg/mL [22]: 9 mm; zone of inhibition at 500 µg/mL [23]: 10 mm; zone of inhibition at 750 µg/mL [24]: 8 mm; zone of inhibition at 1000 µg/mL [25]: 8 mm
Cc1ccc2[nH]c(-c3ccccc3)c(C3C=C(c4ccccc4)Oc4[nH]c(=O)nc(N)c43)c2c1 (stereo not given) | Active | 8 | 8 | 7 | 8 | 8 | 9 | 9 | 8 | 5 | 10 | 9 | 10 | 10 | 10 | 10 | 6 | 5 | 5 | 11 | zone of inhibition at 750 µg/mL [21]: 11 mm; zone of inhibition at 1000 µg/mL [22]: 11 mm; zone of inhibition at 500 µg/mL [23]: 8 mm; zone of inhibition at 750 µg/mL [24]: 8 mm; zone of inhibition at 1000 µg/mL [25]: 8 mm
Nc1nc(=O)[nH]c2c1C(c1c(-c3ccccc3)[nH]c3ccc(Cl)cc13)C=C(c1ccccc1)O2 (stereo not given) | Active | 10 | 10 | 9 | 3 | 3 | 3 | 12 | 12 | 12 | 10 | 10 | 8 | 9 | 8 | 5 | 11 | 10 | 10 | 3 | zone of inhibition at 750 µg/mL [21]: 3 mm; zone of inhibition at 1000 µg/mL [22]: 3 mm; zone of inhibition at 500 µg/mL [23]: 10 mm; zone of inhibition at 750 µg/mL [24]: 10 mm; zone of inhibition at 1000 µg/mL [25]: 10 mm
O=c1[nH]cnc2c1C(c1c(-c3ccccc3)[nH]c3ccc(Cl)cc13)C=C(c1ccccc1)O2 (stereo not given) | Active | 12 | 12 | 13 | 10 | 10 | 9 | 12 | 13 | 13 | 7 | 7 | 7 | 3 | 3 | 3 | 9 | 9 | 9 | 12 | zone of inhibition at 750 µg/mL [21]: 12 mm; zone of inhibition at 1000 µg/mL [22]: 12 mm; zone of inhibition at 500 µg/mL [23]: 10 mm; zone of inhibition at 750 µg/mL [24]: 10 mm; zone of inhibition at 1000 µg/mL [25]: 11 mm
Cc1ccc(C2=CC(c3c(-c4ccccc4)[nH]c4ccc(C)cc34)C(C#N)=C(N)O2)cc1 (stereo not given) | Active | 0 | 0 | 0 | 0 | 9 | 9 | 12 | 13 | 13 | 0 | 0 | 0 | 10 | 10 | 8 | 9 | 9 | 9 | 14 | zone of inhibition at 750 µg/mL [21]: 14 mm; zone of inhibition at 1000 µg/mL [22]: 14 mm; zone of inhibition at 500 µg/mL [23]: 8 mm; zone of inhibition at 750 µg/mL [24]: 4 mm; zone of inhibition at 1000 µg/mL [25]: 3 mm
